Measurements taken from US10717749B2, “Macrocyclic sulfondiimine compounds” (BAYER PHARMA AKTIENGESELLSCHAFT, priority 2015, dated 2020).
≈ marks a conversion by molar mass, not a printed value.

How the values were obtained:
[1] = tested on: Caco-2; experiment: Proliferation assay, crystal violet; type: cell-based; conditions: Homo sapiens, 96 h; Caco-2, 4 days; read-out: Inhibition of Caco-2 cell proliferation IC50
Description: (§1) Cultivated tumour cells (HeLa, human cervical tumour cells, ATCC CCL-2; NCI—H460, human non-small cell lung carcinoma cells, ATCC HTB-177; DU 145, hormone-independent human prostate carcinoma cells, ATCC HTB-81; HeLa-MaTu-ADR, multidrug-resistant human cervical carcinoma cells, EPO-GmbH Berlin; Caco-2, human colorectal carcinoma cells, ATCC HTB-37; B16F10, mouse melanoma cells, ATCC CRL-6475) were plated at a density of 3,500 cells/well (DU145), 3,000 cells/well (HeLa-MaTu-ADR), 1,500 cells/well (NCI—H460), 3,000 cells/well (HeLa), 2,000 cells/well (Caco-2), or 1,000 cells/well (B16F10) in a 96-well multititer plate in 150 μL of their respective growth medium supplemented 10% fetal calf serum. After 24 hours, the cells of one plate (zero-point plate) were stained with crystal violet (see below), the test substances were added in various concentrations (0 μM, as well as in the range of 0.0001-10 μM) employing HP Dispenser. The cells were incubated for 4 days in the presence of test substances. Cell proliferation was determined by staining the cells with crystal violet: the cells were fixed by adding 20 μl/measuring point of an 11% glutaric aldehyde solution for 15 minutes at room temperature. After three washing cycles of the fixed cells with water, the plates were dried at room temperature. The cells were stained by adding 100 μl/measuring point of a 0.1% crystal violet solution DU 145, Caco-2, HeLa (pH 4.5) B16F10, NCI—H460, HeLa-MaTu-ADR. After three washing cycles of the stained cells with water, the plates were dried at room temperature. The dye was dissolved by adding 100 μl per measuring point of a 10% acetic acid solution. The extinction was determined by photometry at a wavelength of 595/550/620 nm depending on the intensity of coloration, usually at 595 nm. The change of cell number, in percent, was calculated by normalization of the measured values to the extinction values of the zero-point plate (=0%) and the extinction of the untreated (0 μM) cells (=100%). The IC50 values (inhibitory concentration at 50% of maximal effect) were determined by means of a 4 parameter fit.

[2] = tested on: DU145; experiment: Proliferation assay, crystal violet; type: cell-based; conditions: Homo sapiens, DU-145, 96 h; DU145, 4 days; read-out: Inhibition of DU145 cell proliferation IC50
Description: as §1

[3] = tested on: HeLa; experiment: Proliferation assay, crystal violet; type: cell-based; conditions: Homo sapiens, 96 h, 4 days, read-out: Inhibition of HeLa cell proliferation IC50
Description: as §1

[4] = tested on: NCI-H460; experiment: Proliferation assay, crystal violet; type: cell-based; conditions: Homo sapiens, 96 h; NCI-H460, 4 days; read-out: Inhibition of NCI-H460 cell proliferation IC50
Description: as §1

[5] = Caco-2 permeation assay; type: in vitro ADME; conditions: human, Caco-2, pH 7.2, test compound 2 μM; for efflux ratio at 2 h, 2 μM: read-out: Efflux ratio (Papp B-A/Papp A-B); for Papp A→B at 2 h, 2 μM: read-out: Papp A-B (Mari); for Papp B→A at 2 h, 2 μM: read-out: Papp B-A (Mari)
Description: 5. Caco-2 Permeation Assay:
Caco-2 cells (purchased from DSMZ Braunschweig, Germany) were seeded at a density of 4.5×10^4 cells per well on 24 well insert plates, 0.4 µm pore size, and grown for 15 days in DMEM medium supplemented with 10% fetal bovine serum, 1% GlutaMAX (100×, GIBCO), 100 U/mL penicillin, 100 μg/mL streptomycin (GIBCO) and 1% non essential amino acids (100×). Cells were maintained at 37° C. in a humified 5% CO2 atmosphere. Medium was changed every 2-3 day. Before running the permeation assay, the culture medium was replaced by a FCS-free hepes-carbonate transport buffer (pH 7.2). For assessment of monolayer integrity the transepithelial electrical resistance (TEER) was measured. Test compounds were predissolved in DMSO and added either to the apical or basolateral compartment in final concentration of 2 μM in transport buffer. Before and after 2 h incubation at 37° C. samples were taken from both compartments. Analysis of compound content was done after precipitation with methanol by LC/MS/MS analysis. Permeability (Papp) was calculated in the apical to basolateral (A→B) and basolateral to apical (B→A) directions. The apparent permeability was calculated using following equation: Papp=(Vr/Po)(1/S)(P2/t) Where Vr is the volume of medium in the receiver chamber, Po is the measured peak area or height of the test drug in the donor chamber at t=o, S the surface area of the monolayer, P2 is the measured peak area of the test drug in the acceptor chamber after 2 h of incubation, and t is the incubation time. The efflux ratio basolateral (B) to apical (A) was calculated by dividing the Papp B-A by the Papp A-B. In addition the compound recovery was calculated. 6. Investigation of In Vitro Metabolic Stability in Rat Hepatocytes

[6] = High throughput determination of aqueous drug solubility from DMSO solution (Method 4a); type: physicochemical; conditions: phosphate buffer, kinetic from dmso stock, pH 6.5, Method 4a
From the text: 4. Equilibrium Shake Flask Solubility Assay:
4a) High Throughput Determination of Aqueous Drug Solubility (100 Mmolar in DMSO)
The high throughput screening method to determine aqueous drug solubility is based on: Thomas Onofrey and Greg Kazan, Performance and correlation of a 96-well high throughput screening method to determine aqueous drug solubility, http://wwv.millipore.com/publications.nsf/a73664f9f981 af8c852569b9005b4eee/e565516fb76e7435852 56da30052db77/$FILE/AN1731EN00.pdf
The assay was run in a 96-well plate format. Each well was filled with an individual compound.
All pipetting steps were performed using a robot platform.
100 μl of a 10 mmolar solution of drug in DMSO were concentrated by vacuum centrifugation and resolved in 10 μl DMSO. 990 μl phosphate buffer pH 6.5 were added. The content of DMSO amounts to 1%. The multititer plate was put on a shaker and mixed for 24 hrs at room temperature. 150 μl of the suspension were transferred to a filtration plate. After filtration using a vacuum manifold the filtrate was diluted 1:400 and 1:8000. A second microtiter plate with 20 μl of a 10 mM solution of drug in DMSO served for calibration. Two concentrations (0.005 μM and 0.0025 μM) were prepared by dilution in DMSO/water 1:1 and used for calibration. Filtrate and calibration plates were quantified by HPLC-MS/MS.
The areas of sample- and calibration injections were determined by using mass spectromety software (AB SCIEX: Discovery Quant 2.1.3. and Analyst 1.6.1). The calculation of the solubility value (in mg/l) was executed by an inhouse developed Excel macro.

Compound	IC50 [1] [nM]	IC50 [2] [nM]	IC50 [3] [nM]	IC50 [4] [nM]	efflux ratio at 2 h, 2 μM [5]	Papp A→B at 2 h, 2 μM [5] [×10⁻⁶ cm/s]	Papp B→A at 2 h, 2 μM [5] [×10⁻⁶ cm/s]	solubility thermodynamic at 24 h [6] [µg/mL]
CS(=N)(=N)Cc1cc2nc(c1)OCCCOc1cc(F)ccc1-c1cc(ncc1F)N2 [Example 1, 15,19-difluoro-8-[(S-methylsulfonodiimidoyl)methyl]-3,4-dihydro-2H,11H-10,6-(azeno)-12,16-(metheno)-1,5,11,13-benzodioxadiazacyclooctadecine]	16.4	9.1	2.8	10.4	1.4	6.24	8.92	–
CS(=N)(=N)Cc1cc2nc(c1C#N)OCCCOc1cc(F)ccc1-c1cc(ncc1F)N2 [Example 8, 15,19-difluoro-8-[(S-methylsulfonodiimidoyl)methyl]-3,4-dihydro-2H,11H-10,6-(azeno)-12,16-(metheno)-1,5,11,13-benzodioxadiazacyclooctadecine-7-carbonitrile]	43.1	11.2	5.5	–	–	–	–	–
CS(=N)(=N)Cc1cc2cc(c1)OCCCCOc1c(ccc(F)c1F)-c1nc(ncc1F)N2 [Example 6, 16,20,21-trifluoro-9-[(S-methylsulfonodiimidoyl)methyl]-2,3,4,5-tetrahydro-12H-13,17-(azeno)-11,7-(metheno)-1,6,12,14-benzodioxadiazacyclononadecine]	325	360	313	369	4.8	4.64	22.3	14 (≈ 29.3 µM)
CS(=N)(Cc1cc2cc(c1)OCCCCOc1cc(F)ccc1-c1nc(ncc1F)N2)=NC1CC1 (racemic) [Example 9, (rac)-9-[(N-cyclopropyl-S-methylsulfonodiimidoyl)methyl]-16,20-difluoro-2,3,4,5-tetrahydro-12H-13,17-(azeno)-11,7-(metheno)-1,6,12,14-benzodioxadiazacyclononadecine]	47.8	118	31.6	56	–	–	–	70 (≈ 140 µM)
CS(=N)(Cc1cc2nc(c1)OCCCOc1cc(F)ccc1-c1cc(ncc1F)N2)=NCCCO (racemic) [Example 2, (rac)-3-(2-{[15,19-difluoro-3,4-dihydro-2H,11H-10,6-(azeno)-12,16-(metheno)-1,5,11,13-benzodioxadiazacyclooctadecin-8-yl]methyl}-2-methyl-2λ^6-diazathia-1,2-dien-1-yl)propan-1-ol]	28.7	29.5	10.2	89.8	23.2	0.99	22.9	–
CS(=N)(=N)Cc1cc2cc(c1)OCCCCOc1cc(F)ccc1-c1nc(ncc1F)N2 [Example 5, 16,20-difluoro-9-[(S-methylsulfonodiimidoyl)methyl]-2,3,4,5-tetrahydro-12H-13,17-(azeno)-11,7-(metheno)-1,6,12,14-benzodioxadiazacyclononadecine]	35.2	36.2	25.8	38.3	5	4.82	24.1	78 (≈ 170 µM)
CS(=N)(=N)Cc1cc2cc(c1)OCCCCOc1c(F)cccc1-c1nc(ncc1F)N2 [Example 7, 16,21-difluoro-9-[(S-methylsulfonodiimidoyl)methyl]-2,3,4,5-tetrahydro-12H-13,17-(azeno)-11,7-(metheno)-1,6,12,14-benzodioxadiazacyclononadecine]	396	396	332	448	–	–	–	–
